ChEMBL document CHEMBL3991601, “The target landscape of clinical kinase drugs” (Science, 2017)
The source made the active and inactive calls.

Legend:
[1] = molecular target: Tyrosine-protein kinase CSK (Homo sapiens, UniProt P41240)
[2] = molecular target: Casein kinase I isoform delta (Homo sapiens, UniProt P48730)
GTP-binding protein 4 = GTP-binding protein 4 (Homo sapiens, UniProt Q9BZE4)
[3] = molecular target: Insulin-like growth factor 1 receptor (Homo sapiens, UniProt P08069)
Insulin receptor = Insulin receptor (Homo sapiens, UniProt P06213)
Sequence of Insulin receptor (P06213 28-758 limits assumed): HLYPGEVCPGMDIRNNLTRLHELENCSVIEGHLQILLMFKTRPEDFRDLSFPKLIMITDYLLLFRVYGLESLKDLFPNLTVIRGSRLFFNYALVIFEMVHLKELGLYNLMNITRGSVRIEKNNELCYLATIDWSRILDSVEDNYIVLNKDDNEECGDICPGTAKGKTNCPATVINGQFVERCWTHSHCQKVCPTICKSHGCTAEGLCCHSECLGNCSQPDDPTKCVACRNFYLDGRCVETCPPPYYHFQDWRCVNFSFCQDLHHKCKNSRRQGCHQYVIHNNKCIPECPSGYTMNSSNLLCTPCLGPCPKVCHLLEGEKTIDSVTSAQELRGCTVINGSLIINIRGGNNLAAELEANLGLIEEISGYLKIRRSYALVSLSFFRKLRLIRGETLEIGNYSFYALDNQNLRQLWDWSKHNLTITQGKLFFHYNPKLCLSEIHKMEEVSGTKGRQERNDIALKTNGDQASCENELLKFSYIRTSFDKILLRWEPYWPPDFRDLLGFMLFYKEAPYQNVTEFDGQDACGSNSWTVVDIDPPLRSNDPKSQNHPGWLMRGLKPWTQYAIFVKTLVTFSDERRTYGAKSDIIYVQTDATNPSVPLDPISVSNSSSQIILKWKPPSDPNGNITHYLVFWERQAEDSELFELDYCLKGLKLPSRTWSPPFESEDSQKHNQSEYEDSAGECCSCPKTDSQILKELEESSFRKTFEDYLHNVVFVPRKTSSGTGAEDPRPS
Sequence of Insulin receptor (P06213 763-1382 limits assumed): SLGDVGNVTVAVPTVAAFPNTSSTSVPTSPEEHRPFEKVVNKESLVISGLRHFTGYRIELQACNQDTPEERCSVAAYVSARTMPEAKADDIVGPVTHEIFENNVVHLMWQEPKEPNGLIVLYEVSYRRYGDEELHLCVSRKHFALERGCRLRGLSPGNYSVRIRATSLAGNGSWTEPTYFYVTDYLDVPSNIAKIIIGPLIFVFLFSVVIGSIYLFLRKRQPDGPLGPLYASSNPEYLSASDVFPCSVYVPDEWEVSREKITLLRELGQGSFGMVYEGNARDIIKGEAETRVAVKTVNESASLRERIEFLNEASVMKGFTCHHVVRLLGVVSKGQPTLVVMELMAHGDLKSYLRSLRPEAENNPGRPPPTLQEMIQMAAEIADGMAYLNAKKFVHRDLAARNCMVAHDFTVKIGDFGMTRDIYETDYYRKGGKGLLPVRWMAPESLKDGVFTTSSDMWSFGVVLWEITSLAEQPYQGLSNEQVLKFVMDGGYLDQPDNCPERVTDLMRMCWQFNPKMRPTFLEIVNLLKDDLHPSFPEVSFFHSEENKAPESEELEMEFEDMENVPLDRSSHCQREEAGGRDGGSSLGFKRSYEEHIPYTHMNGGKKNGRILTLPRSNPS

[4] = molecular target: T1, Mitogen-activated protein kinase kinase kinase 6 (Homo sapiens, UniProt O95382)
T1 sequence (O95382 whole entry): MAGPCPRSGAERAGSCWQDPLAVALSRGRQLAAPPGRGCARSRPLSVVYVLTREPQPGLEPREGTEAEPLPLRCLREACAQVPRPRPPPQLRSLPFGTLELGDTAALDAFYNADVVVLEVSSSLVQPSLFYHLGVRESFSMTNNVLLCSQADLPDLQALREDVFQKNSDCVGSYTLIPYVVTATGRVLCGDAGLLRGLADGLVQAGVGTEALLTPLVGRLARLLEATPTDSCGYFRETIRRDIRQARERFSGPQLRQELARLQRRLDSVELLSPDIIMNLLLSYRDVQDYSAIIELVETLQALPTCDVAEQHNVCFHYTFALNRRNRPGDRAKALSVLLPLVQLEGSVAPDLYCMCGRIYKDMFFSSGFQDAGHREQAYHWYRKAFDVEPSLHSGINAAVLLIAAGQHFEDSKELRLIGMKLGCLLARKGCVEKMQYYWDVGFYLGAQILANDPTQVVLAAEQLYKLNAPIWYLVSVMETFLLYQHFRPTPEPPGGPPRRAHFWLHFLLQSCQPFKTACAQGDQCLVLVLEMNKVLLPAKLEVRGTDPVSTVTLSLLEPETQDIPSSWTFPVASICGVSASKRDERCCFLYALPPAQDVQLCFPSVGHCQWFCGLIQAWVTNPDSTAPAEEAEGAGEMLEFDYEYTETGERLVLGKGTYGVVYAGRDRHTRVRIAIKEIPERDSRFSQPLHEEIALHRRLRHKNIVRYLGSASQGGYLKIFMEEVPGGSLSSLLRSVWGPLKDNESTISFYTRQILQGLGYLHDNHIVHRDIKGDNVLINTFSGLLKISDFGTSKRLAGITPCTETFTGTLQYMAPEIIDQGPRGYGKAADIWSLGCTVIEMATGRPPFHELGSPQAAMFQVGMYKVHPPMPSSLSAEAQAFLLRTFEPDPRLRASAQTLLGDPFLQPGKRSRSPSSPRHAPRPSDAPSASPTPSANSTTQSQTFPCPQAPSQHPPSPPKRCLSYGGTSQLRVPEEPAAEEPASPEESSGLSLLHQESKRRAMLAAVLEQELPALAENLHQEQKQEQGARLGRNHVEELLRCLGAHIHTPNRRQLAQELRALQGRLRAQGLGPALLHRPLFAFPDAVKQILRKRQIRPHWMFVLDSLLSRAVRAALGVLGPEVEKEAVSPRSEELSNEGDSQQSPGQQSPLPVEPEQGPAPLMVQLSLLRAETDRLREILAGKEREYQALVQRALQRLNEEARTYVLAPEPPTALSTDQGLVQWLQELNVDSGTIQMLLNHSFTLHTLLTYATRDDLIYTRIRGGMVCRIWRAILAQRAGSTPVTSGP

[5] = molecular target: Mitogen-activated protein kinase 3 (Homo sapiens, UniProt P27361)
[6] = molecular target: Mitogen-activated protein kinase 8 (Homo sapiens, UniProt P45983)
Sequence of Mitogen-activated protein kinase 8 (P45983 whole entry): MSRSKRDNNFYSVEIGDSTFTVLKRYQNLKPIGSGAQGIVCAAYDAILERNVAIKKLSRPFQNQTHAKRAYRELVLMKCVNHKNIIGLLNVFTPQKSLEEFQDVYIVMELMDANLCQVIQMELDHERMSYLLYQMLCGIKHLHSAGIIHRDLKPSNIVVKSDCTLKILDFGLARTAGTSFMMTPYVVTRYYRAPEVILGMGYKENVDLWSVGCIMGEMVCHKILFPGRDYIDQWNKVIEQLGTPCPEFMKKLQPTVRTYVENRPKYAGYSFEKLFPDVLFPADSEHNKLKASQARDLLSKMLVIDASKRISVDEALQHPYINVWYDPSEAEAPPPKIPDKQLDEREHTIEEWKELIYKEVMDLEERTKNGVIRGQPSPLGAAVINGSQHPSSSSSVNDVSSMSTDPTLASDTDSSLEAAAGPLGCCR

[7] = molecular target: T2, MAP kinase-activated protein kinase 5 (Homo sapiens, UniProt Q8IW41)
T2 sequence (Q8IW41 whole entry): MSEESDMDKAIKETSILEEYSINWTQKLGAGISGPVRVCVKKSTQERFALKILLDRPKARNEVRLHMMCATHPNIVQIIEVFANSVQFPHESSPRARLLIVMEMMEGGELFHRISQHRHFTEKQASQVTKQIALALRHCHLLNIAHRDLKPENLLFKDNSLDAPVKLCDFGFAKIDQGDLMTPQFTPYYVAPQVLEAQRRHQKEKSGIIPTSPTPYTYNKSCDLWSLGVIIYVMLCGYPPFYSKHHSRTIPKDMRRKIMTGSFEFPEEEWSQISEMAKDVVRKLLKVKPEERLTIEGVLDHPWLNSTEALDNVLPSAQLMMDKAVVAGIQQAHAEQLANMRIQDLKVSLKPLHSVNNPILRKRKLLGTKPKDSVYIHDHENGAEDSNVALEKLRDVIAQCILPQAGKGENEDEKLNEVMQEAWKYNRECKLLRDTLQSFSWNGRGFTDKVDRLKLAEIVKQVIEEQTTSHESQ

[8] = molecular target: Protein-tyrosine kinase 2-beta (Homo sapiens, UniProt Q14289)
Sequence of Protein-tyrosine kinase 2-beta (Q14289 whole entry): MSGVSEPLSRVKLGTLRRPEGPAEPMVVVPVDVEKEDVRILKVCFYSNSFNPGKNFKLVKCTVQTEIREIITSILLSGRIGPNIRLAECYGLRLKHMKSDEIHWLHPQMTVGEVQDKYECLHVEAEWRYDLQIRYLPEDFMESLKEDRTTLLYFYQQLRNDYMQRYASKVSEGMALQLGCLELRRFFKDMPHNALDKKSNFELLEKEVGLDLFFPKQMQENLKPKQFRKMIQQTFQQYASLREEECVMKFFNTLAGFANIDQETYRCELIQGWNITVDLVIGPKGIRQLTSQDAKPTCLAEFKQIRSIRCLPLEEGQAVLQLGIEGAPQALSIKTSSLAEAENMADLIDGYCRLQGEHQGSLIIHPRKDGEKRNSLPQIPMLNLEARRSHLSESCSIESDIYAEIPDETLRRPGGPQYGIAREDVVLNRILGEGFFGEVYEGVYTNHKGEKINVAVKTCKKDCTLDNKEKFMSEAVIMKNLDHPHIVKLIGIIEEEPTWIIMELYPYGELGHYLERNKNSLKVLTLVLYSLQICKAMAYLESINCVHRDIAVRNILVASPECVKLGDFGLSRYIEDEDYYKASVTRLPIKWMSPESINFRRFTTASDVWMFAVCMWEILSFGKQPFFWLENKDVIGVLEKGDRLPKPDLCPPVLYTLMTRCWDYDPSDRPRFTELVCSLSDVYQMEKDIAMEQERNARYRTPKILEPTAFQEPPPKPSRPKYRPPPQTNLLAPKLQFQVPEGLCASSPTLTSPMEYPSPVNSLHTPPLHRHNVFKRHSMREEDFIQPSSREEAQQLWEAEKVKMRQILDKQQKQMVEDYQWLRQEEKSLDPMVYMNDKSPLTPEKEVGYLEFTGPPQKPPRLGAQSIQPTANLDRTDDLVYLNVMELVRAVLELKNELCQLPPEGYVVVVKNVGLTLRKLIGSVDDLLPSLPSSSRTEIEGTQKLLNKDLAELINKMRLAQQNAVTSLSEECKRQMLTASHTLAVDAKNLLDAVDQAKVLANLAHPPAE

[9] = molecular target: Serine/threonine-protein kinase 16 (Homo sapiens, UniProt O75716)
Sequence of Serine/threonine-protein kinase 16 (O75716 whole entry): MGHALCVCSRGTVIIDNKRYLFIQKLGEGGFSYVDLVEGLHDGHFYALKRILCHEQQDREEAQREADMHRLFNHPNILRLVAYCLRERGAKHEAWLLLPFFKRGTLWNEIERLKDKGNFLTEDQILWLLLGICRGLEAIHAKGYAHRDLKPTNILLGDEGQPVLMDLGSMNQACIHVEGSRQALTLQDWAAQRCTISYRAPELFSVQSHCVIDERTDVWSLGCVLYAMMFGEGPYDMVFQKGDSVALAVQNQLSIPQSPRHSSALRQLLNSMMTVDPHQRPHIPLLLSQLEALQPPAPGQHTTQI

[10] = molecular target: Elongation factor Tu, mitochondrial (Homo sapiens, UniProt P49411)
[11] = molecular target: T3, Serine/threonine-protein kinase ULK3 (Homo sapiens, UniProt Q6PHR2)
T3 sequence (Q6PHR2 whole entry): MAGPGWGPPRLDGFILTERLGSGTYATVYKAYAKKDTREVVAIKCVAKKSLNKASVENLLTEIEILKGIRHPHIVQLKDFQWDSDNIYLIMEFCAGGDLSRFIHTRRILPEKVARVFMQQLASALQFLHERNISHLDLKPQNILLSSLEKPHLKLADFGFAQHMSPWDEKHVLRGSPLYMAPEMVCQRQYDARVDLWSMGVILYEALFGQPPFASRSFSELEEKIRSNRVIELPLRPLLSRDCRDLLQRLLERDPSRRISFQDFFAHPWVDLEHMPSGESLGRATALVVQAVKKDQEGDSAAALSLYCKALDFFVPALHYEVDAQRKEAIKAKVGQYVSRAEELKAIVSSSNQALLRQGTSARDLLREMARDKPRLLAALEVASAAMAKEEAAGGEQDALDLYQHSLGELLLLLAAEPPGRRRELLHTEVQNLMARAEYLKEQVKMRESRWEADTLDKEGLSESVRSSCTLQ
Also: in the data inactive means no Kd found up to 30 µM.

Sequence of Casein kinase I isoform delta (P48730 whole entry, canonical isoform): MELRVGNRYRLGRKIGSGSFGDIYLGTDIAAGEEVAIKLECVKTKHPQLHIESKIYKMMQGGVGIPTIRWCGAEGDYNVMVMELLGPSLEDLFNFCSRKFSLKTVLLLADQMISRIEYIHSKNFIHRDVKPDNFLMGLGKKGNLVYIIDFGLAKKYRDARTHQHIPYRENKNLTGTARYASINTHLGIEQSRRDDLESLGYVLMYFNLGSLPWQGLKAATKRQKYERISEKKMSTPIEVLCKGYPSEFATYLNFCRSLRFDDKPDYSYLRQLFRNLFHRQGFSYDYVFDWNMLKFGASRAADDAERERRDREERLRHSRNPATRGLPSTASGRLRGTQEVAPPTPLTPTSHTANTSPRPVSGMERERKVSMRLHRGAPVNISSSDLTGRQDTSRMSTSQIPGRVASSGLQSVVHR
Sequence of Insulin-like growth factor 1 receptor (P08069 31-736 limits assumed): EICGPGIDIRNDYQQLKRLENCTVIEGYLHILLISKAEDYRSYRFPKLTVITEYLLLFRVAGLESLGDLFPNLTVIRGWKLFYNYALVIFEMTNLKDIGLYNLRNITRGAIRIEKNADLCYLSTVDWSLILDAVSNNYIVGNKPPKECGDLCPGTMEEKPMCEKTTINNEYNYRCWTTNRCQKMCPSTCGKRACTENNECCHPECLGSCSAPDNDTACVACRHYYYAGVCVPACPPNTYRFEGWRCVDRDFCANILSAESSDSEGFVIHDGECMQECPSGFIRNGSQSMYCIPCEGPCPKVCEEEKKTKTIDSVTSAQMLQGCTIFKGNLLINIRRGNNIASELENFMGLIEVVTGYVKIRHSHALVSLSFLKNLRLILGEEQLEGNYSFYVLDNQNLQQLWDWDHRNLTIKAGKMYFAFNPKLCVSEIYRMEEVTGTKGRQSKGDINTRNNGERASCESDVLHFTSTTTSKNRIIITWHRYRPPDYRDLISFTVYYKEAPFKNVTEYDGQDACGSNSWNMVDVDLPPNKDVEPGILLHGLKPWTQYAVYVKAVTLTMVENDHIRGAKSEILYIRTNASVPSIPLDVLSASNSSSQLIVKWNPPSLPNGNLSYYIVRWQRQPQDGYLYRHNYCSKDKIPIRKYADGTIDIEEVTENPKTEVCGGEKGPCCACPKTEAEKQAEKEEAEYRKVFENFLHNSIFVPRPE
Sequence of Insulin-like growth factor 1 receptor (P08069 741-1367 limits assumed): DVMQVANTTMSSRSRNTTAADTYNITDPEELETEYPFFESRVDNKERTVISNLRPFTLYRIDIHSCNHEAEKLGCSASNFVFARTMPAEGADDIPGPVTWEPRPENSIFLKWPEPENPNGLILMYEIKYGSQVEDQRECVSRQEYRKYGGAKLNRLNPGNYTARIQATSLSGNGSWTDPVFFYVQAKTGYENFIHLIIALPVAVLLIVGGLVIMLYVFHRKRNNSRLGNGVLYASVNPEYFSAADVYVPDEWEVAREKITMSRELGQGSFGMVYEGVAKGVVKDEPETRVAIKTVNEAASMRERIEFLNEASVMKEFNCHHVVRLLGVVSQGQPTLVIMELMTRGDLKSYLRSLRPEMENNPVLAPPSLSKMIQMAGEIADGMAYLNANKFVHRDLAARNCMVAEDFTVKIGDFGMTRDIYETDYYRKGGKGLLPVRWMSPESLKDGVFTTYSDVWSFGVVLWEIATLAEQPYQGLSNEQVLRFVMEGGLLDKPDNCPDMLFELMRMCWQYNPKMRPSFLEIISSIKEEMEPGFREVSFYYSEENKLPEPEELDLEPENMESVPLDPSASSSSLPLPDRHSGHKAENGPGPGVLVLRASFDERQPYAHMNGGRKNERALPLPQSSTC

Structure (SMILES) | Kd [1] | Kd [2] | Kd (GTP-binding protein 4) | Kd [3] | Kd (Insulin receptor) | Kd [4] | Kd [5] | Kd [6] | Kd [7] | Kd [8] | Kd [9] | Kd [10] | Kd [11]
COc1ccc(-c2ccc3ncc4c(c3c2)n(-c2ccc(N3CCNCC3)c(C(F)(F)F)c2)c(=O)n4C)cn1 [BGT-226 FREE BASE] | > 30 µM (inactive) | > 30 µM (inactive) | > 30 µM (inactive) | > 30 µM (inactive) | > 30 µM (inactive) | > 30 µM (inactive) | > 30 µM (inactive) | > 30 µM (inactive) | > 30 µM (inactive) | > 30 µM (inactive) | > 30 µM (inactive) | > 30 µM (inactive) | > 30 µM (inactive)
COc1cc2nccc(Oc3ccc(NC(=O)C4(C(=O)Nc5ccc(F)cc5)CC4)cc3)c2cc1OC [CABOZANTINIB] | > 30 µM (inactive) | > 30 µM (inactive) | > 30 µM (inactive) | > 30 µM (inactive) | > 30 µM (inactive) | > 30 µM (inactive) | > 30 µM (inactive) | > 30 µM (inactive) | > 30 µM (inactive) | > 30 µM (inactive) | > 30 µM (inactive) | > 30 µM (inactive) | > 30 µM (inactive)
c1cc(OCCN2CCCCC2)cc(-c2n[nH]c3ccc(-c4nc[nH]n4)cc23)c1 [CC-401] | > 30 µM (inactive) | 0.287 µM (active) | > 30 µM (inactive) | > 30 µM (inactive) | > 30 µM (inactive) | > 30 µM (inactive) | > 30 µM (inactive) | 0.636 µM (active) | > 30 µM (inactive) | > 30 µM (inactive) | > 30 µM (inactive) | > 30 µM (inactive) | > 30 µM (inactive)
CC1(COc2ccc3c(c2)ncn3-c2ccc3cccc(N4CCC(N)CC4)c3n2)COC1 [CRENOLANIB] | > 30 µM (inactive) | > 30 µM (inactive) | > 30 µM (inactive) | > 30 µM (inactive) | > 30 µM (inactive) | > 30 µM (inactive) | > 30 µM (inactive) | > 30 µM (inactive) | > 30 µM (inactive) | > 30 µM (inactive) | > 30 µM (inactive) | > 30 µM (inactive) | > 30 µM (inactive)
COc1cc2ncnc(Nc3ccc(F)c(Cl)c3)c2cc1NC(=O)/C=C/CN1CCCCC1 [DACOMITINIB ANHYDROUS] | > 30 µM (inactive) | > 30 µM (inactive) | > 30 µM (inactive) | > 30 µM (inactive) | > 30 µM (inactive) | > 30 µM (inactive) | > 30 µM (inactive) | > 30 µM (inactive) | > 30 µM (inactive) | > 30 µM (inactive) | > 30 µM (inactive) | > 30 µM (inactive) | > 30 µM (inactive)
CC[C@@](C)(Nc1ccnc(-c2c[nH]c3ncccc23)n1)C(=O)NCC(F)(F)F [DECERNOTINIB] | > 30 µM (inactive) | > 30 µM (inactive) | > 30 µM (inactive) | > 30 µM (inactive) | > 30 µM (inactive) | > 30 µM (inactive) | > 30 µM (inactive) | > 30 µM (inactive) | > 30 µM (inactive) | > 30 µM (inactive) | > 30 µM (inactive) | > 30 µM (inactive) | > 30 µM (inactive)
Cc1c(Cn2c(C)nc3c(C(=O)O)cc(N4CCOCC4)cc32)cccc1C(F)(F)F [GSK-2636771] | > 30 µM (inactive) | > 30 µM (inactive) | > 30 µM (inactive) | > 30 µM (inactive) | > 30 µM (inactive) | > 30 µM (inactive) | > 30 µM (inactive) | > 30 µM (inactive) | > 30 µM (inactive) | > 30 µM (inactive) | > 30 µM (inactive) | > 30 µM (inactive) | > 30 µM (inactive)
O=S(=O)(c1cccc2c(O)nccc12)N1CCCNCC1 [HYDROXYFASUDIL] | > 30 µM (inactive) | > 30 µM (inactive) | > 30 µM (inactive) | > 30 µM (inactive) | > 30 µM (inactive) | > 30 µM (inactive) | > 30 µM (inactive) | > 30 µM (inactive) | > 30 µM (inactive) | > 30 µM (inactive) | > 30 µM (inactive) | > 30 µM (inactive) | > 30 µM (inactive)
C#Cc1cccc(Nc2ncnc3cc4c(cc23)OCCOCCOCCO4)c1 [ICOTINIB] | > 30 µM (inactive) | > 30 µM (inactive) | > 30 µM (inactive) | > 30 µM (inactive) | > 30 µM (inactive) | > 30 µM (inactive) | > 30 µM (inactive) | > 30 µM (inactive) | > 30 µM (inactive) | > 30 µM (inactive) | > 30 µM (inactive) | > 30 µM (inactive) | > 30 µM (inactive)

Second part, the compound after the results:

Kd [1] | Kd [2] | Kd (GTP-binding protein 4) | Kd [3] | Kd (Insulin receptor) | Kd [4] | Kd [5] | Kd [6] | Kd [7] | Kd [8] | Kd [9] | Kd [10] | Kd [11] | Structure (SMILES)
> 30 µM (inactive) | > 30 µM (inactive) | > 30 µM (inactive) | > 30 µM (inactive) | > 30 µM (inactive) | > 30 µM (inactive) | > 30 µM (inactive) | > 30 µM (inactive) | > 30 µM (inactive) | 1.88 µM (active) | > 30 µM (inactive) | > 30 µM (inactive) | > 30 µM (inactive) | Cc1cc(Nc2nc(N[C@@H](C)c3ncc(F)cn3)ncc2Cl)n[nH]1 [AZD-1480]
1.72 µM (active) | > 30 µM (inactive) | > 30 µM (inactive) | > 30 µM (inactive) | > 30 µM (inactive) | > 30 µM (inactive) | > 30 µM (inactive) | > 30 µM (inactive) | > 30 µM (inactive) | > 30 µM (inactive) | > 30 µM (inactive) | > 30 µM (inactive) | > 30 µM (inactive) | COc1cccc(Nc2ncnn3ccc(CN4CC[C@@H](N)[C@H](O)C4)c23)c1 [BMS-690514]
> 30 µM (inactive) | > 30 µM (inactive) | > 30 µM (inactive) | > 30 µM (inactive) | > 30 µM (inactive) | > 30 µM (inactive) | > 30 µM (inactive) | > 30 µM (inactive) | > 30 µM (inactive) | > 30 µM (inactive) | > 30 µM (inactive) | > 30 µM (inactive) | > 30 µM (inactive) | COc1cc2ncnc3c2cc1OCCCCCN(C)Cc1ccc(Br)cc1N3 [JNJ-26483327]
